Assays:
IL-1β = assay: Anti-IL-1 activity (extracellular substrates of rat cartilage cells); format: cell-based; settings: 72 h, IL-1β 0.2 ng/ml, 3 days, read-out: IL-1 inhibitory activity (%)
Method: Rat cartilage cells were prepared according to the known method [Fujio Suzuki et al., Sin Seikagaku Jikken Kohza, 18, p.871-875 (1990)] and cultivated in Dulbecco's Medium containing 10% fetal bovine serum. After 8 days, various concentrations of a test drug and IL-1β (0.2 ng/ml) were added, and the cells were cultivated for additional 3 days. The amount of extracellular substrates thus produced was determined.
Although IL-1β inhibits the synthesis of extracellular substrates of cartilage cells, addition of the drug inhibits the IL-1 activity and the amount of extracellular substrates synthesized was recovered.

[1] = test system: Rat Carrageenin Paw Edema; assay: Rat Carrageenin Paw Edema Inhibitory Activity; format: in vivo; settings: Jcl:SD rats, 50 mg/kg orally, 3 hours after carrageenin
Method: Rat Carrageenin Paw Edema Inhibitory Activity
The volume of a planter part of a right hind leg of Jcl:SD rats (male, 6 weeks old) was measured, and then suspension of a test drug (50 mg/kg) in 5% acacia was administered orally. Then water was administered additionally so that the total amount of administered liquid became 5 ml/rat. After 1 hour, a suspension (0.05 ml) containing 1% carrageenin in physiological saline was injected intradermally into the plantar to induce swelling [Winter, C. A. et al; Proc. Soc. Exp. Biol. Med., 111, 544 (1962)]. The volume of the right hind leg was measured again 3 hours after the carrageenin injection, and swelling inhibitory rate was calculated from the difference in the volumes before and after the injection.

mice = assay: Oral toxicity in mice; format: in vivo; settings: 300 mg/kg administered orally to mice
Method: The compounds of the present invention have low toxicity. For example, when 300 mg/kg of the compounds prepared in Examples 36, 45, 47, 54 and 64 were administered orally to mice, no mice died. Therefore, the compounds of the present invention are useful as an anti-inflammatory agent, particularly an agent for treating arthritis producing inflammatory symptoms, in humans and other mammals.

[2] = test system: mouse phenylquinone writhing; assay: Analgesic Activity in Mice (phenylquinone writhing model); format: in vivo; settings: Slc:ICR mice, 50 mg/kg orally, 20 minutes
Method: Analgesic Activity in Mice
A drug (50 mg/kg) suspended in 5% acacia was administered orally to Slc:ICR mice (male, 4 weeks old). After 30 minutes, a 0.02% phenylquinone solution (0.1 ml/[…]) in 5% ethanol was administered intraperitoneally. Writhing and stretching reactions for 20 minutes after the injection were calculated for each mouse to evaluate analgesic activity of the test drug [Siegmund, E. et al.; Proc. Soc. Exp. Biol. Med., 95, 729 (1957)].

[3] = test system: Antigen-responsive T cell; assay: Antigen-Responsive T Cell Growth Inhibitory Activity (PPD-stimulated 3H-Tdr incorporation); format: cell-based, Lewis rats; settings: PPD 2 μg/ml, Lewis rat T cells, read-out: Antigen-responsive T cell growth inhibitory rate (%)
Method: Antigen-Responsive T Cell Growth Inhibitory Activity
According to the method of Test Example 1, adjuvant arthritis was induced in Lewis rats (male, 7 weeks old). After 14 days, lymphonodi inguinales were excised. Then, a single-cell suspension was prepared by using RPMI-1640 medium containing 5% fetal bovine serum and then incubated at 37° C. for 1 hour in a nylon wool column. The cells were eluted from the column with the same medium. The non-adsorptive cell-fraction was used as T cells.
On the other hand, spleen cells were taken out from unsensitized Lewis rats (male, 8 to 9 weeks old) and irradiated with soft X-rays (20,000 R). To the spleen cells (1×10^5 cells/well) were added the above T cells (5×10^5 cells/well), PPD (Purified Protein Derivatives; final concentration: 2 μg/ml) and 2% Lewis rat serum (treated at 56° C. for 30 minutes). The mixture was incubated at 37° C. for 72 hours in a 5% carbonic acid incubator. Further, ^3 H-Tdr (0.5 μCi/well) was added followed by incubation for 24 hours. The cells were recovered, and the radioactivity of ^3 H-Tdr incorporated into the cells was determined. The test drug was added to the cell suspension just before the addition of PPD, and effects on incorporation of ^3 H-Tdr into the cells were observed.

SMILES: CCOC(=O)c1c(CSc2nc3ccccc3c(=O)[nH]2)nc2cc(OC)c(OC)cc2c1-c1ccc(OC)c(OC)c1 [Example 64, ethyl 6,7-dimethoxy-4-(3,4-dimethoxyphenyl)-2-[(3,4-dihydro-4-oxoquinazolin-2-yl)thiomethyl]quinoline-3-carboxylate]
- inhibition at 1 µM (IL-1β; 1 μM): 23%
- inhibition at 10 µM (IL-1β; 10 μM): 50%
- Swelling inhibitory rate (%) [1]: 36%
- mortality (mice): no mice died
- Inhibitory rate (%) [2]: 27%
- inhibition at 1 µM ([3]; 1 μM): 53%
- inhibition at 10 µM ([3]; 10 μM): 78%
